Results from patent US20160257957A1, “METHODS AND COMPOSITIONS FOR TREATMENT OF ANGELMAN SYNDROME AND AUTISM SPECTRUM DISORDERS” (PRESIDENT AND FELLOWS OF HARVARD COLLEGE, priority 2010, published 2016).
Where a SMILES comes first, the peptide text is derived from it. The star is where a group is joined. Cbz = O=C(OCc1ccccc1)*

Experiments:
Arc = settings: literature; cited from earlier work
[1] = test system: Ube3A-mediated degradation of Arc; assay: Ube3A-mediated degradation of Arc in transfected HEK293T cells (Western blot); format: cell-based; settings: HEK293T cells transfected with Arc and Ube3A; MG132 10 μM
Experimental: (FIG. 9A) Western blot analysis of protein lysates made from brains of wild type and Ube3A knockout mice two hours following kainate acid injection. Immunoprecipitations were performed with an anti-Ube3A antibody and blotted with an anti-Arc antibody to reveal co-immunoprecipitated Arc. Images presented are representative of experiments performed on four independent sets of wildtype and Ube3A knockout mice. (FIG. 9B) Protein lysates were prepared from HEK293T cells transfected with Myc-Arc and HA-tagged ubiquitin and the indicated constructs and then treated with either vehicle control or the proteasome inhibitor MG132 ([…]). Arc was then immunoprecipitated using the anti-Myc antibody 9E10, and Western blot analysis was performed using an anti-Arc antibody to reveal both non-ubiquitinated and ubiquitinated forms of Arc. (FIG. 9C) Mass spectrometric peaks reveal that Ube3A catalyzes the ubiquitination of Arc on lysine 269. […] SEQ ID NO:5 is KGGEFLQYSEGTLSR(SEQ ID NO: 5) shown. Note the presence of two glycine residues covalently linked to the first lysine of this peptide which is indicative of ubiquitin being attached to that specific residue. […] Additional data not pictured here reveal the presence of ubiquitinated lysine 268 as well. […] SEQ ID NO: 6 is LIFAGKGGQLEDGR (SEQ ID NO: 6) shown in upper panel of FIG. 9D. […]

mGluR5 = biological target: T1, mGluR5 (Mus musculus, UniProt Q3UVX5); settings: mouse model of FXS, injection; cited from earlier work
T1 construct: host or cells: mouse model of Fragile X syndrome (in vivo)
T1 sequence (Q3UVX5 19-1203): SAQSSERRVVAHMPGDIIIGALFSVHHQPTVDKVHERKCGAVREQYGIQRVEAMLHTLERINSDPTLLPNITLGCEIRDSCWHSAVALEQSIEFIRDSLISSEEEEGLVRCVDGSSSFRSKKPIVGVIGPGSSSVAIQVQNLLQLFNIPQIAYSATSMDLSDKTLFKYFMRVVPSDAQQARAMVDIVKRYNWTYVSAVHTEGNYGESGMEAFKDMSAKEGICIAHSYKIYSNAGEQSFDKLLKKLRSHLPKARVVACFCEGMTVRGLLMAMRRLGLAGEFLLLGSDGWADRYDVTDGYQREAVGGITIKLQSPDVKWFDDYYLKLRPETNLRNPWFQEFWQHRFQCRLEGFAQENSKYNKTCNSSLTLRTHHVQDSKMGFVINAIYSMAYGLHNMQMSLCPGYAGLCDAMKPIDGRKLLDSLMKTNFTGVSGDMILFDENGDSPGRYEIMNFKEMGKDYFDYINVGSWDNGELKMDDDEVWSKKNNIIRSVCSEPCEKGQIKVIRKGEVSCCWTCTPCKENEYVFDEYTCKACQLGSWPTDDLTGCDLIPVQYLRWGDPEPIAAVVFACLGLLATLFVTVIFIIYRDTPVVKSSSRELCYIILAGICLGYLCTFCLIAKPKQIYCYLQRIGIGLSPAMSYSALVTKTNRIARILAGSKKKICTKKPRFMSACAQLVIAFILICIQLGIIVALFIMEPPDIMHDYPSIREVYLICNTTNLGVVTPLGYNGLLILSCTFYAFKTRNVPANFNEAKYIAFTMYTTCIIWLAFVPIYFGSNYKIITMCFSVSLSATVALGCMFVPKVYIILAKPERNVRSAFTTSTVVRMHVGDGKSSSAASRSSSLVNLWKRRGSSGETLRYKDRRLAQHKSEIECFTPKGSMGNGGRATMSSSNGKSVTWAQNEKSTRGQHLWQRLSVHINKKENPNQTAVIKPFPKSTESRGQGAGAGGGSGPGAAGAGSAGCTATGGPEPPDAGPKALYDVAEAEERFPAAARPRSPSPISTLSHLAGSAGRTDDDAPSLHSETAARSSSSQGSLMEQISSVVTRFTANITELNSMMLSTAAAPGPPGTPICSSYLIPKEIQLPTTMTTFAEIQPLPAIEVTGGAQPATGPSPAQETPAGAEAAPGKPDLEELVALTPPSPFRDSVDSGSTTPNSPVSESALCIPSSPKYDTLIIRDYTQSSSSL

[2] = test system: muscarinic acetylcholine receptors (mAChR); settings: literature; cited from earlier work
Ube3A = assay: Kainate-induced seizures: Ube3A mRNA and protein in mouse hippocampus; format: in vivo, mice; settings: kainate-induced seizures vs control
Excerpt: FIGS. 8A-8G show regulation of Ube3A mRNA and protein by neuronal activity. (FIG. 8A) Real-time PCR analysis of Ube3A mRNA extracted from hippocampal neurons at E18+10 DIV treated for six hours with the indicated agent. Data are means+/−SEM from three independent experiments. * indicates statistical significance in pairwise comparison to control: P<0.01 T-test. (FIG. 8B) Quantitative Western blot analysis of Ube3A protein. Protein lysates were collected from hippocampal neurons at E18+8 DIV following treatment with the indicated agent for seven hours. This experiment was performed three times independently and the data were normalized to the control and are presented as means+/−SEM. * indicates P<0.01, # indicates P<0.05 in analysis of statistical significance in pairwise comparison to control by T-test. (FIG. 8C) Quantitative Western blot analysis of Ube3A protein. […] (FIG. 8E) Quantitative Western blot analysis of Ube3A protein from mice 2.5 hours after injection with saline (ctl) or kainic acid (seized) to induce seizures. […] (FIG. 8F) Quantitative Western blot analysis of Ube3A protein from mice housed in standard laboratory cages (control) or placed in cages with novel objects (enriched) for 2.5 hours. […]
Quantitative Real-Time PCR was carried out following standard procedures. […]

## C[C@@H](CO)CCC[C@@H](C)[C@H]1CC[C@H]2[C@@H]3CC=C4C[C@@H](O)CC[C@]4(C)[C@H]3CC[C@]12C [27-hydroxycholesterol]
Arc
  ARC expression: specifically decreased

## O=S(=O)(NCCNC/C=C/c1ccc(Br)cc1)c1cccc2cnccc12 [H89]
Arc
  ARC expression: induction of ARC expression

## CC(C)C[C@@H](C=O)NC(=O)[C@H](CC(C)C)NC(=O)[C@H](CC(C)C)NC(=O)OCc1ccccc1 [MG132] (Cbz-Leu-Leu-Leu-aldehyde)
[1]
  Ube3A-mediated degradation of Arc: blocked Ube3A-mediated degradation of Arc

## Cc1cccc(C#Cc2ccccc2)n1 [MPEP, 2-methyl-6-(phenylethynyl)-pyridine]
mGluR5
  surface expression of AMPARs: restored surface expression of AMPARs
  symptoms associated with FXS: prevented the symptoms associated with FXS

## CN1[C@@H]2CC[C@H]1C[C@@H](OC(=O)C(CO)c1ccccc1)C2 (stereo partly drawn) [atropine]
[2]
  mAChR-induced expression of ARC: can be inhibited

## C=C(C)[C@H]1CN[C@H](C(=O)O)[C@H]1CC(=O)O [kainate, kainic acid]
Ube3A; mouse hippocampus
  Ube3A mRNA level: increased
Ube3A; mouse
  Ube3A protein level: increased

## insulin: insulin
Arc
  ARC expression: increased
